Assay results reported in publication PMC3897731, “Antimicrobial Properties and Membrane-Active Mechanism of a Potential α-Helical Antimicrobial Derived from Cathelicidin PMAP-36” (PLoS ONE, 2014).
In brackets after ≈: the same amount, converted by molar mass. Where two headings read alike, the source gives them in different places. Ends that are not written are not given here.

How the values were obtained:
[1] = tested on: Escherichia coli ATCC 25922; conditions: ATCC 25922, 24 h
Protocol: (§1) The antimicrobial activity of each peptide was determined against the following bacteria strains: Escherichia coli ATCC 25922, Escherichia coli UB1005, Salmonella enterica serovar typhimurium C77-31, Staphylococcus aureus ATCC 29213, Staphylococcus aureus ATCC 25923 and Staphylococcus epidermidis ATCC 12228. The minimal inhibitory concentrations (MICs) of the peptides were measured according to a modified version of the National Committee for Clinical Laboratory Standards (NCCLS) broth microdilution method as described previously. Briefly, mid-logarithmic phase bacteria were cultured in Mueller-Hinton (MH) broth and then diluted to 1×10^5 CFU/ml. Equal volumes (50 µl) of microorganism solution and 2-fold serially diluted different concentrations (0.25–128 µM) peptides in 0.01% (v/v) acetic acid and 0.2% (w/v) bovine serum albumin (BSA, Sigma) were added to each well of the sterile 96-well plate. After incubation for 24 h at 37°C, MICs were determined as the lowest concentration of peptides that prevented visible turbidity by visual inspection. The tests were performed in triplicate. Cultures without peptides and uninoculated MH broth were employed as positive and negative controls, respectively. In addition, the salt stability of the peptides was tested in the MIC assay mentioned above.

Escherichia coli UB1005 = tested on: Escherichia coli UB1005
Protocol: as §1

[2] = tested on: Salmonella enterica serovar typhimurium C77-31
Protocol: as §1

[3] = tested on: Staphylococcus aureus ATCC 25923; conditions: ATCC 25923, 24 h
Protocol: as §1

[4] = tested on: Staphylococcus aureus ATCC 29213; conditions: ATCC 29213, 24 h
Protocol: as §1

[5] = tested on: Staphylococcus epidermidis ATCC 12228
Protocol: as §1

[6] = tested on: gram-negative and gram-positive bacteria (six strains tested)
Protocol: as §1

human erythrocytes = assay: Hemolytic activity; type: cell-based; conditions: for Hemolytic activity (in words): 1 h at 37°C in PBS, absorbance at 570 nm, up to 128 µM, three independent experiments; for Concentration causing 50% hemolysis: highest concentration 128 µM
Protocol: The hemolytic activity of the peptides was measured as the amount of hemoglobin released by the lysis of human erythrocytes. Briefly, 1 ml of fresh human blood cells (hRBCs) obtained from a healthy donor (Na Dong, Harbin, China) in a polycarbonate tube containing heparin was centrifuged at 1,000×g for 5 min at 4°C [16]. The experimental protocol was reviewed and approved by the ethics committee of the Northeast Agricultural University Hospital. The erythrocytes obtained were washed three times with phosphate-buffered saline (PBS) solution (pH 7.2) and resuspended in PBS. A 50 µl volume of the erythrocyte solution was incubated with 50 µl of various peptides dissolved in PBS for 1 h at 37°C. Intact erythrocytes were pelleted by centrifugation at 1,000×g for 5 min at 4°C, and the supernatant was transferred to a new 96-well plate. The release of hemoglobin was monitored by measuring the absorbance at 570 nm. As negative and positive controls, hRBCs in PBS without the peptide and 0.1% Triton X-100 were employed, respectively.

[7] = strain not given; for MIC, Without treatment: no salt added
E. coli ATCC 25922 = assay: FACScan analysis of membrane integrity (propidium iodide); type: cell-based, Escherichia coli
Protocol: The integrity of the bacterial cell membranes after peptide treatment was determined using a previously described method. In brief, mid-logarithmic phase E. coli ATCC 25922 were harvested by centrifugation and washed three times with 10 mM PBS solution. The peptides (1×MIC and 2×MIC) were added and incubated for 30 min at 28°C with constant shaking at 140 rpm, and then, propidium iodide (PI, 10 µg/ml final concentration, Sigma) was added and incubated for a further 30 min at 4°C. After incubation, the unbound dye was removed via excessive washing of cells with PBS. Flow cytometry analysis was conducted using a FACScan instrument (Becton–Dickinson, San Jose, CA). E. coli cells were incubated with PI without peptide treated as negative control.

E. coli UB1005 = assay: Inner (cytoplasmic) membrane depolarization, diSC3(5); type: cell-based, Escherichia coli; conditions: 0.4 µM diSC3(5), monitored over 360 s
Protocol: The cytoplasmic membrane depolarization activity of the peptides was measured by using E. coli UB1005 and the membrane potential sensitive fluorescent dye diSC3(5) as described previously. Briefly, mid-logarithmic phase E. coli were washed with 5 mM sodium HEPES buffer, pH 7.4, containing 20 mM glucose, and resuspended to an OD600 of 0.05 in the same buffer. The cell suspension was incubated with 0.4 µM diSC3(5) until a stable reduction of fluorescence was achieved (approximately 1 h). Then KCl was added to a final concentration of 0.1 M to equilibrate the cytoplasmic and external K^+. Two milliliters of the cell suspension were placed in a 1 cm cuvette, and the peptides were added to achieve the desired concentrations. Changes in fluorescence were recorded using an F-4500 fluorescence spectrophotometer (Hitachi, Japan) with an excitation wavelength of 622 nm and an emission wavelength of 670 nm. 0.1% Triton X-100 was employed as positive controls.

[8] = serovar typhimurium C77-31, 24 h
[9] = all tested strains, >128 µM counted as 256 µM
[10] = broth microdilution, MH broth, 1×10^5 CFU/ml, 24 h at 37°C, visible turbidity, triplicate

| Compound | MIC E. coli ATCC25922 [1] [µM] | MIC E. coli UB 1005 (Escherichia coli UB1005; UB1005, 24 h) [µM] | MIC S. typhimurium C77-31 [2, 8] [µM] | MIC S. aureus ATCC 25923 [3] [µM] | MIC S. aureus ATCC 29213 [4] [µM] | MIC S. epidermidis ATCC 12228 ([5]; ATCC 12228, 24 h) [µM] | GM, geometric mean of the MICs [6, 9] [µM] | Hemolytic activity (in words) (human erythrocytes) | further results |
| --- | --- | --- | --- | --- | --- | --- | --- | --- | --- |
| GRFRRLRKKTRKRLKKIGKVLKWIPPIVGSIPLGCG-NH2 [PMAP-36, porcine myeloid antimicrobial peptide-36] | 1 | 2 | 1 | 2 | 2 | 2 | 1.59 | slightly hemolytic activity | MIC, CaCl2 (1 mM) [7]: 1 µM; MIC, MgCl2 (1 mM) [7]: 2 µM; MIC, NaCl (50 mM) [7]: 1 µM; MIC, NaCl (100 mM) [7]: 1 µM; MIC, NaCl (150 mM) [7]: 2 µM; MIC, Without treatment [7]: 1 µM |
| GRFRRLRKKTRKRLKKIGKVLKWI-NH2 [GI24] | 1 | 2 | 1 | 4 | 2 | 2 | 1.78 | slightly hemolytic activity | Concentration causing 50% hemolysis (human erythrocytes; 1 h at 37°C): > 128 µM; MIC, CaCl2 (1 mM) [7]: 1 µM; MIC, MgCl2 (1 mM) [7]: 2 µM; MIC, NaCl (50 mM) [7]: 1 µM; MIC, NaCl (100 mM) [7]: 2 µM; MIC, NaCl (150 mM) [7]: 2 µM; MIC, Without treatment [7]: 1 µM |
| RLKKIGKVLKWI-NH2 [RI12] | 8 | 16 | 8 | 128 | 64 | 64 | 28.51 | no hemolytic activity |  |
| GRFRRLRKKTRKRLKKIGKV |  |  |  |  |  |  |  |  | Antimicrobial activity (in words) ([6]; tested microorganisms, up to 128 µM): extremely low antimicrobial activity |
| GVFRRLRKVTRKVLKKIGKVLKWI-NH2 [GI24-V3] | 4 | 4 | 4 | 4 | 4 | 2 | 3.56 | relatively high hemolytic activity | Concentration causing 50% hemolysis (human erythrocytes; 1 h at 37°C): 128 µM |
| CC[C@H](C)[C@H](NC(=O)CN)C(=O)NCC(=O)N[C@@H](C)C(=O)N[C@H](C(=O)N[C@@H](CC(C)C)C(=O)N[C@@H](CCCCN)C(=O)N[C@H](C(=O)N[C@@H](CC(C)C)C(=O)N[C@H](C(=O)N[C@H](C(=O)NCC(=O)N[C@@H](CC(C)C)C(=O)N1CCC[C@H]1C(=O)N[C@@H](C)C(=O)N[C@@H](CC(C)C)C(=O)N[C@H](C(=O)N[C@@H](CO)C(=O)N[C@@H](Cc1c[nH]c2ccccc12)C(=O)N[C@H](C(=O)N[C@@H](CCCCN)C(=O)N[C@@H](CCCNC(=N)N)C(=O)N[C@@H](CCCCN)C(=O)N[C@@H](CCCNC(=N)N)C(=O)N[C@@H](CCC(N)=O)C(=O)N[C@@H](CCC(N)=O)C(N)=O)[C@@H](C)CC)[C@@H](C)CC)[C@@H](C)O)[C@@H](C)O)C(C)C)C(C)C [melittin, reference compound] |  |  |  |  |  |  |  |  | MIC E. coli UB 1005 (Escherichia coli UB1005; [10]): 2 µM (≈ 5.69 µg/mL); MIC S. typhimurium C77-31 [2, 10]: 2 µM (≈ 5.69 µg/mL); MIC S. epidermidis ATCC 12228 [5, 10]: 0.5 µM (≈ 1.42 µg/mL); GM, geometric mean of the MICs ([6]; 24 h): 2.52 µM; Concentration causing complete hemolysis (human erythrocytes; 1 h at 37°C): 4 µM; Cells stained with PI (E. coli ATCC 25922): 40.7%; Cytoplasmic membrane depolarization (diSC3(5) fluorescence, in words) (E. coli UB1005): induced dose-dependent increases in diSC3(5) fluorescence |
| GRFRRLRKKTRKRLKKIGKVLKLI-NH2 [GI24-W23L] | 1 | 2 | 2 | 4 | 4 | 4 | 2.52 | slightly hemolytic activity |  |
| GRFRRLRKKTRKRLKKIGKVLKAI-NH2 [GI24-W23A] | 16 | 16 | >128 | 128 | 128 | 128 | 71.84 |  |  |
| GRFRRLRKKTRKRLKKIGKVLKKI-NH2 [GI24-W23K] | 32 | 16 | >128 | 64 | 32 | 32 | 45.25 | no hemolytic activity |  |
| GRFRRLRKKTRK-NH2 [GK12] | 128 | 128 | >128 | >128 | >128 | >128 | 203.19 | no hemolytic activity |  |
| PPIVGSIPLGCG-NH2 [PG12] | >128 | >128 | >128 | >128 | >128 | >128 | 256 | no hemolytic activity |  |
| GVFRVLRKVTRVVLKVIGKVLKWI-NH2 [GI24-V6] | 2 | 4 | 4 | 2 | 2 | 2 | 2.52 | relatively high hemolytic activity | Concentration causing 50% hemolysis (human erythrocytes; 1 h at 37°C): 8 µM |
